Values joined by “and” are separate entries in the source; they are usually repeats but may differ in a detail not shown here. Equal values may be shown once. Inconclusive results are not listed.

The assay has as its system mice, ADJ-PC-20 plasma cell tumor sc, T/C %. Kind of assay: NCI In Vivo Anticancer Drug Screen. Data for tumor model ADJ-PC-20 Plasma Cell (subcutaneous) in unknown mice. To be noted: endpoint: mean tumor weight, higher = larger tumour. As for the experimental part: The antitumor activity of compounds was measured in mice bearing transplantable tumors. Survival or tumor size were measured and the results are expressed as the measurement made in the treated group (T) divided by the measurement made in the vehicle treated control group (C). The tumor model used in this assay is ADJ-PC-20 Plasma Cell (subcutaneous) in unknown mice

Setting [1] is: dose: 500.0 mg/kg/injection, schedule: Q01DX010 (sc), vehicle: steriod suspending solution.
The mark [2] stands for this setting: dose: 1000.0 mg/kg/injection, schedule: Q01DX010 (sc), vehicle: steriod suspending solution.
[3] abbreviates: dose: 25.0 mg/kg/injection, schedule: Q01DX010 (ip), vehicle: carboxymethylcellulose (CMC).
The mark [4] stands for this setting: dose: 100.0 mg/kg/injection, schedule: Q01DX010 (ip), vehicle: carboxymethylcellulose (CMC).
Where [5] appears, read: dose: 6.3 mg/kg/injection, schedule: Q01DX010 (ip), vehicle: carboxymethylcellulose (CMC).
Where [6] appears, read: dose: 12.5 mg/kg/injection, schedule: Q01DX010 (ip), vehicle: carboxymethylcellulose (CMC).

Regarding `Clc1ccc(C(c2ccccc2Cl)C(Cl)Cl)cc1` (centres undefined), the T/C is 66 % of control (dose: 25.0 mg/kg/injection, schedule: Q01DX010 (sc), vehicle: steriod suspending solution); 60 % of control (dose: 50.0 mg/kg/injection, schedule: Q01DX010 (sc), vehicle: steriod suspending solution); 86 % of control and 100 % of control and 109 % of control (dose: 200.0 mg/kg/injection, schedule: Q01DX010 (sc), vehicle: steriod suspending solution); 92 % of control (dose: 400.0 mg/kg/injection, schedule: Q01DX010 (sc), vehicle: steriod suspending solution); 73 % of control (dose: 800.0 mg/kg/injection, schedule: Q01DX010 (sc), vehicle: steriod suspending solution).

As to `S=c1nc[nH]c2nc[nH]c12`, the T/C (dose: 3.1 mg/kg/injection, schedule: Q01DX010 (ip), vehicle: other) is 28 % of control; the T/C (dose: 6.2 mg/kg/injection, schedule: Q01DX010 (ip), vehicle: other) was 16 % of control; the T/C (dose: 6.25 mg/kg/injection, schedule: Q01DX010 (ip), vehicle: other) is 19 % of control; the T/C (dose: 6.25 mg/kg/injection, schedule: Q01DX011 (ip), vehicle: other) was 7 % of control; the T/C (dose: 12.5 mg/kg/injection, schedule: Q01DX010 (ip), vehicle: other) is 18 % of control; the T/C (dose: 12.5 mg/kg/injection, schedule: Q01DX011 (ip), vehicle: other) is 4 % of control. For the same compound, the T/C reads like this: (dose: 25.0 mg/kg/injection, schedule: Q01DX010 (ip), vehicle: other) 9 % of control and 10 % of control; (dose: 25.0 mg/kg/injection, schedule: Q01DX011 (ip), vehicle: other) 5 % of control; (dose: 50.0 mg/kg/injection, schedule: Q01DX011 (ip), vehicle: other) 7 % of control.

As for `CC[C@@H](c1ccc(O)cc1)[C@@H](CC)c1ccc(O)cc1`, the T/C runs as follows: (dose: 62.0 mg/kg/injection, schedule: Q01DX010 (sc), vehicle: steriod suspending solution) 80 % of control; (dose: 125.0 mg/kg/injection, schedule: Q01DX010 (sc), vehicle: steriod suspending solution) 87 % of control; (dose: 250.0 mg/kg/injection, schedule: Q01DX010 (sc), vehicle: steriod suspending solution) 83 % of control; under setting [1], 91 % of control and 105 % of control; under setting [2], 111 % of control.

As for `COC(=O)c1nc(-c2ccc3c(n2)C(=O)C(N)=C(OC)C3=O)c(N)c(-c2ccc(OC)c(OC)c2O)c1C`, the T/C was 71 % of control (dose: 0.35 mg/kg/injection, schedule: Q01DX010 (ip), vehicle: other); 60 % of control (dose: 0.65 mg/kg/injection, schedule: Q01DX010 (ip), vehicle: other); 32 % of control (dose: 1.08 mg/kg/injection, schedule: Q01DX010 (ip), vehicle: other); 4 % of control (dose: 1.8 mg/kg/injection, schedule: Q01DX010 (ip), vehicle: other).

In the case of `O=CCC(O)C(O)C(O)CO` (centres undefined), the T/C was 110 % of control (dose: 62.5 mg/kg/injection, schedule: Q01DX010 (ip), vehicle: carboxymethylcellulose (CMC)); 115 % of control (dose: 125.0 mg/kg/injection, schedule: Q01DX010 (ip), vehicle: carboxymethylcellulose (CMC)); 117 % of control (dose: 250.0 mg/kg/injection, schedule: Q01DX010 (ip), vehicle: carboxymethylcellulose (CMC)); 80 % of control (dose: 500.0 mg/kg/injection, schedule: Q01DX010 (ip), vehicle: carboxymethylcellulose (CMC)); 96 % of control (dose: 1000.0 mg/kg/injection, schedule: Q01DX010 (ip), vehicle: carboxymethylcellulose (CMC)); 94 % of control (dose: 2000.0 mg/kg/injection, schedule: Q01DX010 (ip), vehicle: carboxymethylcellulose (CMC)).

Regarding `CC(=O)O[C@]1(C(C)=O)CC[C@H]2[C@@H]3C[C@H](C)C4=CC(=O)C=C[C@]4(C)[C@@]3(F)[C@@H](O)C[C@@]21C`, the T/C is 82 % of control (dose: 5.0 mg/kg/injection, schedule: Q01DX010 (sc), vehicle: steriod suspending solution); 55 % of control (dose: 10.0 mg/kg/injection, schedule: Q01DX010 (sc), vehicle: steriod suspending solution); 74 % of control (dose: 20.0 mg/kg/injection, schedule: Q01DX010 (sc), vehicle: steriod suspending solution); 73 % of control (dose: 40.0 mg/kg/injection, schedule: Q01DX010 (sc), vehicle: steriod suspending solution); 33 % of control (dose: 80.0 mg/kg/injection, schedule: Q01DX010 (sc), vehicle: steriod suspending solution).

As to `CN(Cc1cnc2nc(N)nc(N)c2n1)c1ccc(C(=O)N[C@@H](CCC(=O)O)C(=O)O)cc1`, the T/C was 117 % of control (dose: 0.04 mg/kg/injection, schedule: Q01DX010 (ip), vehicle: other); 107 % of control (dose: 0.08 mg/kg/injection, schedule: Q01DX010 (ip), vehicle: other); 78 % of control (dose: 0.15 mg/kg/injection, schedule: Q01DX010 (ip), vehicle: other); 46 % of control (dose: 0.31 mg/kg/injection, schedule: Q01DX011 (ip), vehicle: other); 68 % of control and 89 % of control (dose: 0.62 mg/kg/injection, schedule: Q01DX010 (ip), vehicle: other); 59 % of control (dose: 0.62 mg/kg/injection, schedule: Q01DX011 (ip), vehicle: other). Where the note is “dose: 0.63 mg/kg/injection, schedule: Q01DX010 (ip), vehicle: other”, the T/C was 88 % of control and 107 % of control.

With `Oc1cc(CN(CCCl)CCCl)c(O)cc1CN(CCCl)CCCl`, the T/C by setting is: (dose: 0.22 mg/kg/injection, schedule: Q01DX010 (sc), vehicle: steriod suspending solution) 62 % of control; (dose: 0.45 mg/kg/injection, schedule: Q01DX010 (sc), vehicle: steriod suspending solution) 69 % of control; (dose: 0.9 mg/kg/injection, schedule: Q01DX010 (sc), vehicle: steriod suspending solution) 76 % of control; (dose: 1.8 mg/kg/injection, schedule: Q01DX010 (sc), vehicle: steriod suspending solution) 28 % of control.

Take `CN(C)c1ccc(Nc2c3ccccc3nc3ccccc23)cc1`: the T/C is 88 % of control (dose: 6.25 mg/kg/injection, schedule: Q01DX010 (ip), vehicle: carboxymethylcellulose (CMC)); 115 % of control under setting [3]; 67 % of control under setting [4].

`S=P(N1CCOCC1)(N1CC1)N1CC1`: the T/C by setting is: (dose: 3.1 mg/kg/injection, schedule: Q01DX010 (ip), vehicle: carboxymethylcellulose (CMC)) 88 % of control and 100 % of control; under setting [5], 116 % of control; under setting [6], 1 % of control.

As to `C[C@]12C=CC(=O)C=C1CC[C@@H]1[C@@H]2[C@@H](O)C[C@@]2(C)[C@H]1CC[C@]2(O)C(=O)CO`, the T/C (dose: 32.0 mg/kg/injection, schedule: Q01DX010 (sc), vehicle: steriod suspending solution) was 63 % of control.

Regarding `O=c1[nH]cc(F)c(=O)[nH]1`, the T/C is 173 % of control (dose: 1.56 mg/kg/injection, schedule: Q01DX010 (ip), vehicle: saline); 35 % of control (dose: 6.25 mg/kg/injection, schedule: Q01DX010 (ip), vehicle: saline); 20 % of control (dose: 12.5 mg/kg/injection, schedule: Q01DX010 (ip), vehicle: saline).

`Cn1c(N)nc2nc[nH]c2c1=S`: the T/C under setting [5] was 118 % of control; the T/C under setting [6] was 105 % of control; the T/C under setting [3] was 116 % of control; the T/C (dose: 50.0 mg/kg/injection, schedule: Q01DX010 (ip), vehicle: carboxymethylcellulose (CMC)) is 98 % of control; the T/C under setting [4] was 76 % of control.

Consider `[I][Hg][CH2]C1COC([CH2][Hg][I])CO1` (centres undefined), for which the T/C reads like this: (dose: 3.75 mg/kg/injection, schedule: Q01DX010 (ip), vehicle: carboxymethylcellulose (CMC)) 87 % of control; (dose: 7.5 mg/kg/injection, schedule: Q01DX010 (ip), vehicle: carboxymethylcellulose (CMC)) 111 % of control; (dose: 15.0 mg/kg/injection, schedule: Q01DX010 (ip), vehicle: carboxymethylcellulose (CMC)) 104 % of control; (dose: 30.0 mg/kg/injection, schedule: Q01DX010 (ip), vehicle: carboxymethylcellulose (CMC)) 115 % of control.

Regarding `C[C@]12CCC(=O)C[C@H]1CC[C@@H]1[C@@H]2CC[C@@]2(C)[C@H]1CC[C@]2(C)O`, the T/C under setting [1] was 105 % of control and 119 % of control; the T/C under setting [2] is 96 % of control.

For the compound `C[C@]12CC[C@H](OC3OC(CO)C(O)C(O)C3O)C[C@H]1CC[C@@H]1[C@@H]2CC[C@]2(C)[C@@H](C3=CCOC3=O)CC[C@]12O` (some centres undefined), the T/C by setting is: (dose: 63.0 micrograms/kg/injection, schedule: Q01DX010 (ip), vehicle: saline) 99 % of control; (dose: 125.0 micrograms/kg/injection, schedule: Q01DX010 (ip), vehicle: saline) 93 % of control; (dose: 250.0 micrograms/kg/injection, schedule: Q01DX010 (ip), vehicle: saline) 95 % of control.

These data come from PubChem BioAssay AID332 (DTP/NCI, 2004).
